Assay results reported in ChEMBL document CHEMBL1123071 (J Med Chem, 1985).

Experiments:
[1] = physchem; details: octanol/water
[2] = target: T1, Dihydrofolate reductase type 1 (Escherichia coli) (UniProt P00382); experiment: Inhibition of dihydrofolate reductase (DHFR) from Escherichia coli.
T1 sequence (whole entry): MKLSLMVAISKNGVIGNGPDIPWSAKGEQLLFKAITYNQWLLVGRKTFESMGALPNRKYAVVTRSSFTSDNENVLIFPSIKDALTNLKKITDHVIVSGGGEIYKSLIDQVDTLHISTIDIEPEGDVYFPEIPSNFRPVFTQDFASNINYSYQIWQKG

[3] = octanol/water

SMILES | logP [1] | further results
CC(C)N [ISOPROPYLAMINE] | 0.26 | –
C=C(F)F | 1.24 | –
FC(F)(F)C(F)(F)F | 2 | –
CC1(C)N=C(N)N=C(N)N1CCCc1ccccc1 | – | Log 1/C [2]: 7.2
O=C(O)CS [THIOGLYCOLIC ACID] | 0.09 | –
FC(Cl)Cl | 1.55 | –
Brc1ccccn1 | 1.38 | –
CCOC(=O)c1ccc(N2C(N)=NC(N)=NC2(C)C)cc1 | – | Log 1/C [2]: 4.42
CC1(C)N=C(N)N=C(N)N1CCc1ccccc1 | – | Log 1/C [2]: 5.42
CC(F)F | 0.75 | –
CC#N [ACETONITRILE] | -0.34 | –
CCCl [ETHYL CHLORIDE] | 1.43 | –
ClC(Cl)=C(Cl)Cl [TETRACHLOROETHYLENE] | 2.6 | –
C[N+](C)(C)CCI | -3 | –
CS(=O)(=O)c1ccccc1 [METHYLPHENYLSULFONE] | 0.48 | –
CC1(C)N=C(N)N=C(N)N1c1ccc(C#N)cc1 | – | Log 1/C [2]: 4.04
C#C [ETHYNE] | 0.37 | –
FC(F)(Cl)C(F)(F)Cl [DICHLOROTETRAFLUOROETHANE] | 2.82 | –
CC1(C)N=C(N)N=C(N)N1c1cccc([N+](=O)[O-])c1 | – | Log 1/C [2]: 5.51
C#CC [PROPYNE] | 0.94 | –
C1=CCOC1 | 0.46 | –
CC#CC | 1.46 | –
C=C | 1.13 | –
COC(C)=O [ACETIC ACID METHYL ESTER] | 0.18 | –
CCCN1C(N)=NC(N)=NC1(C)C | – | Log 1/C [2]: 5.33

SMILES | logP [1] | further results
COC [METHOXYMETHANE] | 0.1 | –
CC1(C)N=C(N)N=C(N)N1c1ccc(-c2ccccc2)cc1 | – | Log 1/C [2]: 5.24
CNC(C)=O | -1.05 | –
C=CCC | 2.4 | –
C[S+]([O-])c1ccccc1 (configuration not stated) [METHYLPHENYLSULFOXIDE] | 0.55 | –
CC1(C)N=C(N)N=C(N)N1c1ccc(Cl)cc1 | – | Log 1/C [2]: 6.4
CC1(C)N=C(N)N=C(N)N1c1cccc(Cc2ccccc2)c1 | – | Log 1/C [2]: 6.55
O=Nc1ccccc1 [NITROSOBENZENE] | 2.01 | –
Nc1cccc(Cl)c1 [3-CHLOROANILINE] | 1.88 | –
OCC(Cl)Cl | 0.37 | –
C=COCC | 1.04 | –
Cc1cccc([N+](C)(C)C)c1 | -2.31 | –
CO [METHYL ALCOHOL] | -0.71 | –
NC(=O)C(F)(F)F [TRIFLUOROACETAMIDE] | 0.12 | –
CC1(C)N=C(N)N=C(N)N1Cc1ccccc1 | – | Log 1/C [2]: 4.47
CC[N+](=O)[O-] [NITROETHANE] | 0.18 | –
CCN [ETHYLAMINE] | -0.13 | –
CC1(C)N=C(N)N=C(N)N1c1cccc(C(F)(F)F)c1 | – | Log 1/C [2]: 5.64
NC(=O)CBr | -0.52 | –
CCSCC [DIETHYL SULFIDE] | 1.95 | –
Brc1ccncc1 | 1.54 | –
CN(C)N=O [N-NITROSODIMETHYLAMINE] | -0.57 | –
CS(=O)(=O)Oc1cccc(Cc2cnc(N)nc2N)c1 | – | Log 1/C [2]: 6.92
CN1C(N)=NC(N)=NC1(C)C | – | Log 1/C [2]: 4.32
CC1(C)N=C(N)N=C(N)N1c1ccc(Cl)c(Cl)c1 | – | Log 1/C [2]: 6.8

SMILES | logP [1] | further results
C=C=C | 1.45 | –
O=c1[nH]cc(I)c(=O)[nH]1 | 0.04 | –
NC(N)=O [UREA] | -1.09 | –
FCF | 0.2 | –
CC(C)N(N=O)C(C)C | 1.63 | –
CSc1ccccc1 | 2.74 | –
Nc1ncc(Cc2ccc([N+](=O)[O-])cc2)c(N)n1 | – | Log 1/C [2]: 6.2
OCC(F)(F)F [TRIFLUOROETHANOL] | 0.41 | –
CBr [BROMOMETHANE] | 1.19 | –
CCOC(C)=O [ETHYL ACETATE] | 0.7 | –
O=Nc1ccc(O)c(C(=O)O)c1 | 2.34 | –
CN(N=O)C(N)=O [N-METHYL-N-NITROSUREA] | -0.16 | –
C=CC [PROPENE] | 1.77 | –
O=[N+]([O-])CCO | -0.42 | –
COc1cccc(N2C(N)=NC(N)=NC2(C)C)c1 | – | Log 1/C [2]: 5.41
CC(O)CN (configuration not stated) | -0.96 | –
CC1(C)N=C(N)N=C(N)N1c1cccc(Cl)c1 | – | Log 1/C [2]: 6.22
CC(=O)Nc1ccc(Cc2cnc(N)nc2N)cc1[N+](=O)[O-] | – | Log 1/C [2]: 6.97
COc1ccccc1 [ANISOLE] | 2.08 | –
CCNC(N)=S | -0.66 | –
CCOCC [ETHER] | 0.77 | –
CC1(C)N=C(N)N=C(N)N1c1ccc(C(=O)O)cc1 | – | Log 1/C [2]: 2.72
NC(=O)C(Cl)(Cl)Cl | 1.04 | –
CC1(C)N=C(N)N=C(N)N1c1cccc(C(=O)O)c1 | – | Log 1/C [2]: 3.89
Nc1ncc(Cc2ccc(OC(F)(F)F)cc2)c(N)n1 | – | Log 1/C [2]: 6.57

SMILES | logP [1] | further results
CN [METHYLAMINE] | -0.57 | –
Oc1cccc(I)c1 | 3 | –
CF [FLUOROMETHANE] | 0.51 | –
CCCCCF | 2.33 | –
COc1ccc(Cc2cnc(N)nc2N)cc1C(F)(F)F | – | Log 1/C [2]: 7.69
FC(F)Cl | 1.08 | –
ClC=C(Cl)Cl [TRICHLOROETHYLENE] | 2.29 | –
OCC(Cl)(Cl)Cl [TRICHLORETHANOL] | 1.42 | –
C=CC#N [ACRYLONITRILE] | -0.92 | –
CC1(C)N=C(N)N=C(N)N1c1ccccc1 | – | Log 1/C [2]: 5.52
O=[N+]([O-])c1cccc(I)c1 | 2.94 | –
Sc1ccccc1 [BENZENETHIOL] | 2.52 | –
O=C(O)CBr [BROMOACETIC ACID] | 0.41 | –
CCOCCO [2-ETHOXYETHANOL] | -0.54 | –
CI [IODOMETHANE] | 1.51 | –
ClCCl [METHYLENE CHLORIDE] | 1.25 | –
CC(Cl)(Cl)Cl [TRICHLOROETHANE] | 2.49 | –
O=NN(CCF)C(=O)NCCCl | 0.95 | –
N=C=N [CARBIMIDE] | -0.5 | –
O=CO [FORMIC ACID] | -0.54 | –
Clc1ccccc1 [CHLOROBENZENE] | 2.46 | –
NC(N)=S [THIOUREA] | – | logP [3]: -1.06
